According to patent US8097617B2, “Organic compounds” (Novartis AG, priority 2006, dated 2012):

Molecular target: T1, human DPP-IV (Homo sapiens, UniProt P27487)
T1 construct: Human DPP-IV consisting of amino acids 39 to 766 followed by a C-terminal Streptavidin-tag; Streptavidin-tag (C); made in house
Experiment: DPP-IV inhibitory activity assay, fluorogenic substrate H-Gly-Pro-AMC
Type: biochemical
Details: recombinant human DPP-IV (aa 39-766), substrate H-Gly-Pro-AMC 10 μM, room temperature, 1 hour; read-out: IC50 (inhibitory activity to human DPP-4)
Procedure: Some of Compounds 1 to 40 were tested for their inhibitory activity to human DPP-IV.
Human DPP-IV consisting of amino acids 39 to 766 followed by a C-terminal Streptavidin-tag was expressed using the baculovirus system and purified to >80% purity. The enzyme was stored in 25 mM Tris buffer, pH 9.0, containing 300 mM NaCl at −80° C.
The fluorogenic substrates H-Gly-Pro-AMC was purchased from Bachem AG (Bubendorf, Switzerland). The substrate was kept as a 5 mM stock solution in DMSO at −20° C. All other chemicals were purchased from Sigma (Buchs, Switzerland).
The assay buffer for the DPP-IV reaction was 25 mM Tris/HCl, pH 7.5, containing 140 mM NaCl, 10 mM KCl and 0.05% (w/v) CHAPS.
The test compounds were dissolved in 90% DMSO/10% H2O (v/v). Serial dilutions of the compounds from 3 mM to 0.03 μM in 90% DMSO/10% H2O (v/v) followed by a 1:33.3 dilution in assay buffer was done in 96-well polypropylene plates using a CyBio Dilus 8-channel pipettor (CyBio AG, Jena, Germany) with tip change after each pipetting step. The compound solutions as well as the substrate and the enzyme solutions were transferred to the assay plates (384-well black Cliniplate; cat. no. 95040020 Labsystems Oy, Finland) by means of a CyBi-Well 96-channel pipettor (CyBio AG, Jena, Germany).
Enzyme kinetics were measured by mixing 10 μl of a 3-fold concentrated substrate solution in assay buffer (final substrate concentration was 10 μM) with 10 μl of the corresponding compound solution. The reactions were initiated by addition of 10 μl of a 3-fold concentrated solution of the enzyme in assay buffer. Final enzyme (active site) concentrations in the assay was […] for DPP-IV. Fluorescence product (AMC) formation was monitored for 1 hour at room temperature at 35 second intervals by measuring the fluorescence emission at 500 nm using an exitation wavelength of 350 nm in a TECAN Ultra fluorescence reader (TECAN, Maennedorf, Switzerland). The fluorescence in each well was excited by one flash per measurement. The Origin software package (Origin 7.5 Mircocal, Northampton, Mass., USA) was used to generate all graphs and to perform the IC50 calculations.

T1 sequence (P27487 39-766): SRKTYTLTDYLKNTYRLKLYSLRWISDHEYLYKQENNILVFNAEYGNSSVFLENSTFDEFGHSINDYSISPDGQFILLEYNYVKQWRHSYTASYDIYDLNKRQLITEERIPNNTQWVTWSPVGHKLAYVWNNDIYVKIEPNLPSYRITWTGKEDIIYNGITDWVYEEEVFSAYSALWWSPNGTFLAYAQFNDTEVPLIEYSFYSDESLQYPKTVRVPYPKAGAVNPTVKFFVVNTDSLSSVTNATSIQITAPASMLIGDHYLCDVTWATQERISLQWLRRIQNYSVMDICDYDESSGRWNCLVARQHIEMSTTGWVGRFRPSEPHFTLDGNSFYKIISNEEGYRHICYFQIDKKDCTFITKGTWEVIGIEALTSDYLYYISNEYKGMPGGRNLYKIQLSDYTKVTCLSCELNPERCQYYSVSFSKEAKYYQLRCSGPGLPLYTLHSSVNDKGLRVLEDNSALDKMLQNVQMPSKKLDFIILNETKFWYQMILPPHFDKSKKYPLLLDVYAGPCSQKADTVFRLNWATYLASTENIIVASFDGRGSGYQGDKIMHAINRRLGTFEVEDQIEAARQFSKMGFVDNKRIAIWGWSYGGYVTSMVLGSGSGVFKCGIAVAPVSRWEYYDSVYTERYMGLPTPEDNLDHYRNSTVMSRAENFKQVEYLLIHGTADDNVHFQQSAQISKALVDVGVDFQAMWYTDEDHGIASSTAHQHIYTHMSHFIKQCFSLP

IC50 [nM] | Structure (SMILES)
22 | NCc1cc2ncc(C(=O)N3CCOCC3)n2cc1-c1ccc(Cl)cc1Cl [Compound 27a, [7-Aminomethyl-6-(2,4-dichloro-phenyl)-imidazo[1,2-a]pyridin-3-yl]-morpholin-4-yl-methanone]
23 | COCCN(C)c1cnc2cc(CN)c(-c3ccc(Cl)cc3Cl)cn12 [Compound 7, [7-Aminomethyl-6-(2,4-dichloro-phenyl)-imidazo[1,2-a]pyridin-3-yl]-(2-methoxy-ethyl)-methyl-amine]
25 | CN1CCC(C(=O)Nc2nnc3cc(CN)c(-c4ccc(Cl)cc4Cl)cn23)CC1 [Compound 18b, 1-Methyl-piperidine-4-carboxylic acid [7-aminomethyl-6-(2,4-dichloro-phenyl)-[1,2,4]triazolo[4,3-a]pyridin-3-yl]-amide]
23 | NCc1cc2ncc(-c3ccc(F)c(F)c3)n2cc1-c1ccc(Cl)cc1Cl [Compound 4d, C-[6-(2,4-Dichloro-phenyl)-3-(3,4-difluoro-phenyl)-imidazo[1,2-a]pyridin-7-yl]-methylamine]
